Experiments:
[1] = pH stability: half-lives for P—N bond hydrolysis of model linkers; assay type: physicochemical
From the text: The present disclosure provides a method of screening for conjugates that can deliver an agent at a specific pH. In one aspect, conjugates having formula (I) comprising various substituents neighboring the ionizable group and having varying length between the ionizable group and the phosphorus center could be screened to determine which conjugates will hydrolyze at pH 3.0, 3.5, 4.0, 4.5, 5.0, 5.5, 6.0, and 6.5. In another aspect, a specific conjugate can be screened to determine at which pH it will hydrolyze or which pH its rate of hydrolysis is the fastest. The hydrolysis of the conjugate can be monitored by nuclear magnetic resonance (NMR) (FIG. 6), HPLC, spectrophotometric methods, or mass spectrometry.
It was observed from studies on distance effects that proximity of a neighboring, but electronically isolated, functional group, can be used to alter the stability of a phorphoramidate bond.

[2] = Plasma stability of cleavable linkers; assay type: in vitro ADME
Description: When a conjugate is administered to a subject in vivo, its plasma stability is important. The present disclosure provides conjugates with the desired plasma stability. Plasma stability of cleavable linkers with the desired release profile are provided herein.

Structure (SMILES) | ½ Lives for P—N Bond Hydrolysis, pH 3 [1] | ½ Lives for P—N Bond Hydrolysis, pH 5.5 ([1]; pH 5.5) | ½ Lives for P—N Bond Hydrolysis, pH 6.5 [1] | ½ Lives for P—N Bond Hydrolysis, pH 7.4 [1] | ½ Lives for P—N Bond Hydrolysis, pH 4.5 [1] | also measured
CN(c1ccccc1)P(=O)(O)OCCCc1cccnc1 [Entry H11] | 0.48 hr | 9.6 hr | 1.1 days | 10 day days | – | –
O=P(O)(NCCc1ccccc1)OCCCc1ccccn1 [Entry H41] | 2.1 hr | 19.3 hr | 24.1 hr | 11 days | 9.63 hr | –
CN(CCc1ccccc1)P(=O)(O)OCCc1ccccn1 [Entry H69] | – | – | – | – | – | ½ Lives for P—N Bond Hydrolysis, pH 3 (result in words) [1]: Unstable; ½ Lives for P—N Bond Hydrolysis, pH 4.5 (result in words) [1]: Unstable; ½ Lives for P—N Bond Hydrolysis, pH 5.5 (result in words) ([1]; pH 5.5): Unstable; ½ Lives for P—N Bond Hydrolysis, pH 6.5 (result in words) [1]: Unstable; ½ Lives for P—N Bond Hydrolysis, pH 7.4 (result in words) [1]: Unstable
CN(c1ccccc1)P(=O)(O)OCCc1ccccn1 [Entry H115] | – | – | – | – | – | ½ Lives for P—N Bond Hydrolysis, pH 3 (result in words) [1]: Unstable; ½ Lives for P—N Bond Hydrolysis, pH 4.5 (result in words) [1]: Unstable; ½ Lives for P—N Bond Hydrolysis, pH 5.5 (result in words) ([1]; pH 5.5): Unstable; ½ Lives for P—N Bond Hydrolysis, pH 6.5 (result in words) [1]: Unstable; ½ Lives for P—N Bond Hydrolysis, pH 7.4 (result in words) [1]: Unstable
CN(CCc1ccccc1)P(=O)(O)OCCCc1ccccc1 [Entry H133] | – | 9.6 hr | – | – | – | ½ Life for P—N Bond Hydrolysis, pH 5.5, second value in parentheses ([1]; pH 5.5, value in parentheses, meaning not explained): 1.9 hr
Cc1ccc(C(=O)NC(COP(=O)(O)N(C)CCc2ccccc2)C(=O)O)cc1 (stereo not drawn) [Entry H155] | – | 3.98 min | 9.63 min | 1.93 hr | – | –
O=P(O)(NCCc1ccccc1)OCCCc1cccnc1 [Entry H5] | 1.9 hr | 8 day days | – | 90 day days | 19.3 hr | ½ Lives for P—N Bond Hydrolysis, pH 6.5 (result in words) [1]: Stable
CN(CCc1ccccc1)P(=O)(O)OCCc1cccnc1 [Entry H99] | 0.39 hr | 3.2 hr | 9.6 hr | 1.6 days | 1.93 hr | –
Cc1ccc(C(=O)NC(CCOP(=O)(O)N(C)CCc2ccccc2)C(=O)O)cc1 (stereo not drawn) [Entry H179] | – | 9.62 hr | – | 2 Days days | 0.96 hr | –
O=P(O)(Nc1ccccc1)OCCCc1ccccn1 [Entry H45] | 1.6 day days | 2.0 days | 8 days | 4 day days | 8.9 day days | –
O=P(O)(Nc1ccccc1)OCCCc1cccnc1 [Entry H7] | 1.6 day days | 16 day days | 8 days | 27 day days | 133 days | ½ Lives for P—N Bond Hydrolysis, pH 4.5 (result in words) [1]: Stable; ½ Lives for P—N Bond Hydrolysis, pH 6.5 (result in words) [1]: STABLE
CN(CCc1ccccc1)P(=O)(O)OCCCc1cccnc1 [Entry H9] | 0.48 hr | 3.2 hr | 19.3 hr | 2.7 days | – | ½ Life for P—N Bond Hydrolysis, Plasma ([2]; Plasma (pH 7.23)): 27.5 h
CN(CCc1ccccc1)P(=O)(O)OCCCc1ccccn1 [Entry H43] | 0.21 hr | 1.2 hr | 3.85 hr | 21.4 hr | – | ½ Life for P—N Bond Hydrolysis, Plasma ([2]; Plasma (pH 7.38)): 19.3 h

Now from value to molecule, other results behind:

½ Lives for P—N Bond Hydrolysis, pH 3 [1] | ½ Lives for P—N Bond Hydrolysis, pH 5.5 ([1]; pH 5.5) | ½ Lives for P—N Bond Hydrolysis, pH 6.5 [1] | ½ Lives for P—N Bond Hydrolysis, pH 7.4 [1] | ½ Lives for P—N Bond Hydrolysis, pH 4.5 [1] | Structure (SMILES) | also measured
– | 38.5 min | 1.93 hr | 19.3 hr | 5.25 min | Cc1ccc(C(=O)NC(COP(=O)(O)NCCc2ccccc2)C(=O)O)cc1 (stereo not drawn) [Entry H157] | –
– | 14.4 min | 57.8 min | 6.42 hr | – | CN(c1ccccc1)P(=O)(O)OCc1ccccc1C(=O)O [Entry I11] | –
– | 16.5 min | 38.5 min | 6.42 hr | 0.98 min | Cc1ccc(C(=O)NC(COP(=O)(O)N(C)c2ccccc2)C(=O)O)cc1 (stereo not drawn) [Entry H161] | –
4 days | 8 days | 2 days | 16 days | 20 days | O=P(O)(Nc1ccccc1)OCCc1cccnc1 [Entry H113] | ½ Lives for P—N Bond Hydrolysis, pH 6.5 (result in words) [1]: Stable
2.8 hr | 1.6 days | 4 days | 16 days | – | O=P(O)(NCCc1ccccc1)OCCc1cccnc1 [Entry H97] | –
0.32 hr | 0.96 hr | 1.9 hr | 9.6 hr | – | O=P(O)(Nc1ccccc1)OCCc1ccccn1 [Entry H85] | –
12.8 min | 19.25 hr | 2.0 days | 26.7 days | 3.21 hr | Cc1ccc(C(=O)NC(COP(=O)(O)Nc2ccccc2)C(=O)O)cc1 (stereo not drawn) [Entry H159] | –
0.64 hr | 9.6 hr | 19.3 hr | 10 days | 3.85 hr | CN(c1ccccc1)P(=O)(O)OCCc1cccnc1 [Entry H105] | –
– | 0.13 hr | 0.32 hr | 2.1 hr | – | O=P(O)(NCCc1ccccc1)OCCc1ccccn1 [Entry H119] | ½ Lives for P—N Bond Hydrolysis, pH 3 (result in words) [1]: Unstable
0.48 hr | 2.1 hr | 3.9 hr | 1.3 days | – | CN(c1ccccc1)P(=O)(O)OCCCc1ccccn1 [Entry H135] | –

Source: patent US10383912B2, “Tunable pH-sensitive linker for controlled drug release” (Washington State University, priority 2014, dated 2019)
